Test results: ChEMBL document CHEMBL4342436, “Artemisia: a promising plant for the treatment of cancer” (Bioorg Med Chem, 2020)
Converted amounts (≈) assume the structure as drawn.

Experiments:
[1] = test system: HeLa; test: Cytotoxicity against human HeLa cells assessed as reduction in cell viability incubated for 48 hrs by MTT assay; assay type: functional, cell-based
[2] = test system: MCF7; test: Cytotoxicity against human MCF7 cells assessed as reduction in cell viability incubated for 48 hrs by MTT assay; assay type: functional, cell-based; conditions: MCF7, 48 h
[3] = test system: HT-29; test: Cytotoxicity against human HT-29 cells assessed as reduction in cell viability after 48 hrs by MTT assay; assay type: functional, cell-based; conditions: HT-29, 48 h
[4] = test system: A549; test: Cytotoxicity against human A549 cells assessed as reduction in cell viability after 48 hrs by MTT assay; assay type: functional, cell-based; conditions: A549, 48 h
[5] = test system: P388; test: Cytotoxicity against mouse P388 cells assessed as reduction in cell viability after 48 hrs by MTT assay; assay type: functional, cell-based; conditions: P388, 48 h
[6] = test system: L1210; test: Cytotoxicity against mouse L1210 cells assessed as reduction in cell viability after 48 hrs by MTT assay; assay type: functional, cell-based; conditions: L1210, 48 h
[7] = test system: SW-620; test: Antitumour activity against human SW620 cells xenografted in mouse assessed as inhibition of tumour growth at 60 mg/kg relative to control; assay type: functional; conditions: read-out: TGI
[8] = test system: SK-OV-3; test: Cytotoxicity against human SKOV3 cells by SRB assay; assay type: functional, cell-based
[9] = test system: HCT-15; test: Cytotoxicity against human HCT15 cells by SRB assay; assay type: functional, cell-based
[10] = test system: SK-MEL-2; test: Cytotoxicity against human SK-MEL-2 cells by SRB assay; assay type: functional, cell-based
[11] = test system: XF498; test: Cytotoxicity against human XF498 cells by SRB assay; assay type: functional, cell-based
[12] = test system: A549; test: Cytotoxicity against human A549 cells by SRB assay; assay type: functional, cell-based
[13] = test system: U-937; test: Cytotoxicity against human U937 cells after 48 hrs by MTT assay; assay type: functional, cell-based; conditions: U-937, 48 h
[14] = test system: A549; test: Cytotoxicity against human A549 cells after 48 hrs by MTT assay; assay type: functional, cell-based; conditions: A549, 48 h
[15] = test system: HeLa; test: Cytotoxicity against human HeLa cells after 48 hrs by MTT assay; assay type: functional, cell-based
[16] = test system: HT-29; test: Cytotoxicity against human HT-29 cells; assay type: functional; conditions: read-out: ED50 (the source's name)
[17] = test system: MCF7; test: (§1) Cytotoxicity against human MCF7 cells; assay type: functional; conditions: read-out: ED50 (the source's name)
[18] = test system: P388; test: Cytotoxicity against mouse P388 cells; assay type: functional; conditions: read-out: ED50 (the source's name)
[19] = test system: KB; test: (§2) Cytotoxicity against human KB cells; assay type: functional; conditions: read-out: ED50 (the source's name)
[20] = test system: MCF7; test: Cytotoxicity against human MCF7 cells after 72 hrs by MTT assay; assay type: functional, cell-based; conditions: MCF7, 72 h
[21] = test system: A549; test: Cytotoxicity against human A549 cells by MTT assay; assay type: functional, cell-based
[22] = test system: A2780; test: Cytotoxicity against human A2780 cells after 72 hrs by MTT assay; assay type: functional, cell-based; conditions: A2780, 72 h
[23] = test system: A-431; test: Cytotoxicity against human A431 cells after 72 hrs by MTT assay; assay type: functional, cell-based; conditions: A-431, 72 h
[24] = test system: Bel-7402; test: Cytotoxicity against human Bel7402 cells by MTT assay; assay type: functional, cell-based
[25] = test system: HeLa; test: Cytotoxicity against human HeLa cells after 72 hrs by MTT assay; assay type: functional, cell-based
[26] = test system: SH-SY5Y; test: Cytotoxicity against human SH-SY5Y cells after 72 hrs by MTT assay; assay type: functional, cell-based
[27] = Cytotoxicity against mouse S17 cells after 72 hrs by MTT assay; assay type: functional, cell-based; conditions: S17, 72 h
[28] = test system: HepG2; test: Cytotoxicity against human HepG2 cells after 72 hrs by MTT assay; assay type: functional, cell-based; conditions: HepG2, 72 h
[29] = test system: HL-60; test: Antiproliferative activity against human HL60 cells assessed as reduction in cell viability after 3 days by XTT assay; assay type: functional, cell-based; conditions: HL-60, 72 h
[30] = Cytotoxicity against human YD-10B cells assessed as reduction in cell viability after 48 hr by MTT asssay; assay type: functional, cell-based
[31] = test system: KB; test: as §2; assay type: functional, cell-based
[32] = test system: LNCaP; test: Cytotoxicity against human LNCAP cells; assay type: functional, cell-based
[33] = test system: HepG2; test: Cytotoxicity against human HepG2 cells; assay type: functional, cell-based
[34] = test system: MCF7; test: as §1; assay type: functional, cell-based
[35] = test system: SK-MEL-2; test: Cytotoxicity against human SK-MEL-2 cells; assay type: functional, cell-based

Q: Which results are given for `COc1cc(-c2oc3cc(O)cc(O)c3c(=O)c2OC)cc(O)c1OC`?
A: IC50 [1]: 8.1 to 63.2 µM; IC50 [2]: 10.3 to 91.9 µM

Q: Which IC50 [1] does the source give for `COc1ccc(-c2cc(=O)c3c(O)c(OC)c(OC)cc3o2)cc1OC` here?
A: 8.1 to 63.2 µM

Q: What about the IC50 [2] of the same compound?
A: 10.3 to 91.9 µM

Q: What does the source list for `C[C@H]1[C@@H](O[C@H](C#N)c2ccc(Br)cc2)O[C@@H]2O[C@@]3(C)CC[C@H]4[C@H](C)CC[C@@H]1[C@@]24OO3`?
A: IC50 [3]: 0.01 to 0.49 µM; IC50 [4]: 0.01 to 0.49 µM; IC50 [5]: 0.01 to 0.49 µM; IC50 [6]: 0.01 to 0.49 µM

Q: For `C[C@H]1[C@@H](O[C@@H](C#N)c2ccc(Br)cc2)O[C@@H]2O[C@@]3(C)CC[C@H]4[C@H](C)CC[C@@H]1[C@@]24OO3`, which IC50 [3] is on record?
A: 0.01 to 0.49 µM

Q: And the IC50 [4]?
A: 0.01 to 0.49 µM

Q: What about the IC50 [5] of the same compound?
A: 0.01 to 0.49 µM

Q: And the IC50 [6]?
A: 0.01 to 0.49 µM

Q: Which inhibition in vivo at 60 mg/kg [7] does the source give for `COc1ccc(-c2cc(=O)c3c(O)c(O)c(OC)cc3o2)cc1OC` here?
A: 44.6%

Q: Which results are given for `CC(C)=CCC[C@H](C)[C@H]1C[C@@H]2OO[C@H]1C=C2C`?
A: IC50 [8]: 0.1 to 0.87 µg/mL (≈ 0.423 to 3.68 µM); IC50 [9]: 0.1 to 0.87 µg/mL (≈ 0.423 to 3.68 µM); IC50 [10]: 0.1 to 0.87 µg/mL (≈ 0.423 to 3.68 µM); IC50 [11]: 0.1 to 0.87 µg/mL (≈ 0.423 to 3.68 µM); IC50 [12]: 0.1 to 0.87 µg/mL (≈ 0.423 to 3.68 µM)

Q: What does the source list for `C=C1C(=O)O[C@H]2[C@H]1[C@@H](OC(=O)C(C)C)CC(C)=C1C[C@@H]3O[C@]3(C)[C@@H]12`?
A: IC50 [13]: 16 to 43.5 µg/mL (≈ 48.1 to 131 µM); IC50 [14]: 16 to 43.5 µg/mL (≈ 48.1 to 131 µM); IC50 [15]: 16 to 43.5 µg/mL (≈ 48.1 to 131 µM)

Q: Which IC50 [13] does the source give for `C=C1C(=O)O[C@@H]2/C=C(\C)[C@@H](OC(=O)[C@@H](C)CC)C/C=C(\C)CC[C@@H]12` here?
A: 16 to 43.5 µg/mL (≈ 48.1 to 131 µM)

Q: What about the IC50 [14] of the same compound?
A: 16 to 43.5 µg/mL (≈ 48.1 to 131 µM)

Q: What about the IC50 [15] of the same compound?
A: 16 to 43.5 µg/mL (≈ 48.1 to 131 µM)

Q: What does the source list for `COc1ccc(-c2oc3cc(OC)c(OC)c(O)c3c(=O)c2O)cc1OC`?
A: EC50 [16]: 1.25 to 9.62 µg/mL (≈ 3.34 to 25.7 µM); EC50 [17]: 1.25 to 9.62 µg/mL (≈ 3.34 to 25.7 µM); EC50 [18]: 1.25 to 9.62 µg/mL (≈ 3.34 to 25.7 µM); EC50 [19]: 1.25 to 9.62 µg/mL (≈ 3.34 to 25.7 µM)

Q: With `COc1cc(-c2cc(=O)c3c(O)c(O)c(OC)cc3o2)ccc1O` as the compound, how does the inhibition in vivo at 60 mg/kg [7] read?
A: 14.6%

Q: Which IC50 [20] does the source give for `C=C1C(=O)O[C@H]2[C@H]1CC[C@@](C)(O)[C@]13O[C@H]1[C@H](Cl)[C@@](C)(O)[C@H]23` here?
A: 33 to 75 µg/mL (≈ 105 to 238 µM)

Q: What about the IC50 [21] of the same compound?
A: 3.3 to 6 µM

Q: What about the IC50 [22] of the same compound?
A: 33 to 75 µg/mL (≈ 105 to 238 µM)

Q: And the IC50 [23]?
A: 33 to 75 µg/mL (≈ 105 to 238 µM)

Q: And the IC50 [24]?
A: 3.3 to 6 µM

Q: What about the IC50 [25] of the same compound?
A: 33 to 75 µg/mL (≈ 105 to 238 µM)

Q: Which IC50 [13] does the source give for `C=C1C(=O)O[C@H]2[C@H]1[C@@H](OC(=O)/C(C)=C\C)CC(C)=C1C[C@@H]3O[C@]3(C)[C@@H]12` here?
A: 16 to 43.5 µg/mL (≈ 46.5 to 126 µM)

Q: What about the IC50 [14] of the same compound?
A: 16 to 43.5 µg/mL (≈ 46.5 to 126 µM)

Q: And the IC50 [15]?
A: 16 to 43.5 µg/mL (≈ 46.5 to 126 µM)

Q: With `CC1=CCC2[C@@H]1[C@H]1OC(=O)[C@@H](C)[C@@H]1C[C@]1(C)O[C@H]21` (some centres undefined) as the compound, how does the IC50 [26] read?
A: 229 to 233 µM

Q: What about the IC50 [27] of the same compound?
A: 229 to 233 µM

Q: And the IC50 [28]?
A: 229 to 233 µM

Q: With `CC(C)=CCC[C@H](C)[C@H]1C[C@H]2OO[C@@H]1C=C2C` as the compound, how does the IC50 [8] read?
A: 0.2 to 5.43 µg/mL (≈ 0.846 to 23 µM)

Q: What about the IC50 [9] of the same compound?
A: 0.2 to 5.43 µg/mL (≈ 0.846 to 23 µM)

Q: And the IC50 [10]?
A: 0.2 to 5.43 µg/mL (≈ 0.846 to 23 µM)

Q: What about the IC50 [11] of the same compound?
A: 0.2 to 5.43 µg/mL (≈ 0.846 to 23 µM)

Q: What about the IC50 [12] of the same compound?
A: 0.2 to 5.43 µg/mL (≈ 0.846 to 23 µM)

Q: Which IC50 [29] does the source give for `CC#CC#CCc1ccccc1` here?
A: 1.1 to 40.7 µg/mL (≈ 7.13 to 264 µM)

Q: With `C[C@H]1[C@@H](CCNC(=O)CC[C@H](NC(=O)CC[C@H]2O[C@@H]3O[C@@]4(C)CC[C@H]5[C@H](C)CC[C@@H]([C@H]2C)[C@@]35OO4)C(=O)NCC[C@H]2O[C@@H]3O[C@@]4(C)CC[C@H]5[C@H](C)CC[C@@H]([C@H]2C)[C@@]35OO4)O[C@@H]2O[C@@]3(C)CC[C@H]4[C@H](C)CC[C@@H]1[C@@]24OO3` as the compound, how does the IC50 [30] read?
A: 6 µM

Q: For `COc1cc2ccc(=O)oc2c(OC)c1O`, which IC50 [8] is on record?
A: 0.4 to 26.8 µg/mL (≈ 1.8 to 121 µM)

Q: And the IC50 [9]?
A: 0.4 to 26.8 µg/mL (≈ 1.8 to 121 µM)

Q: What about the IC50 [10] of the same compound?
A: 0.4 to 26.8 µg/mL (≈ 1.8 to 121 µM)

Q: What about the IC50 [11] of the same compound?
A: 0.4 to 26.8 µg/mL (≈ 1.8 to 121 µM)

Q: What about the IC50 [12] of the same compound?
A: 0.4 to 26.8 µg/mL (≈ 1.8 to 121 µM)

Q: What does the source list for `C=C1C(=O)O[C@H]2[C@H]1CC[C@@](C)(O)C1=C[C@H](O)[C@@](C)(O)[C@@H]12`?
A: IC50 [31]: > 100 µM; IC50 [32]: > 100 µM; IC50 [33]: > 100 µM; IC50 [34]: > 100 µM; IC50 [35]: > 100 µM

Q: What does the source list for `C=C1C(=O)O[C@H](C2=C(C)[C@@H](OC)CC2=O)[C@H]1CCC(C)=O`?
A: IC50 [20]: 33 to 75 µg/mL (≈ 113 to 257 µM); IC50 [22]: 33 to 75 µg/mL (≈ 113 to 257 µM); IC50 [23]: 33 to 75 µg/mL (≈ 113 to 257 µM); IC50 [25]: 33 to 75 µg/mL (≈ 113 to 257 µM)

Q: With `C=C1C(=O)O[C@H]2[C@H]1[C@@H](OC(C)=O)CC(=C)[C@]1(O)C[C@H](Cl)[C@@](C)(O)[C@H]21` as the compound, how does the IC50 [21] read?
A: 3.3 to 6 µM

Q: And the IC50 [24]?
A: 3.3 to 6 µM
